Where “and” joins values, the source holds several entries; their conditions need not be identical. Equal entries are not always repeated. No end group written: not given here.
Tests used:
Type in all cases: cell-based
[1] = target: T1, (L1.35P, I3.24F, W4.61G)-MRGPRX1 (Homo sapiens, UniProt Q96LB2, I94F/L30P/W158G); experiment: Intracellular Ca2+ mobilization in COS-7 cells, Gαq16-fused receptor, (L1.35P, I3.24F, W4.61G)-MRGPRX1
T1 construct: host or cells: COS-7
Description: (§1) ORFs of MRGPRX1 and MRGPRX2 purchased from OriGene and Mm-MRGPRX1 synthesized in Genscript were C-terminally fused with the human Gαq16 protein as described previously ([23]). Briefly, the human Gαq16 ORF clone (OriGene) was amplified and ligated into the XbaI site of a pcDNA6 plasmid (Invitrogen). Then, MRGPRX1 and MRGPRX2 were subcloned (Table S1) into the NotI–XbaI site of the Gαq16-ligated pcDNA6 plasmids. MRGPRX1 and two mutants were constructed using the PrimeSTAR Mutagenesis Basal Kit with mutation oligos (Table S1).
(§2) COS-7 cells were purchased from American Type Culture Collection and cultured in Dulbecco's modified Eagle's medium (Nacalai Tesque) supplemented with 10% fetalbovine serum (Sigma) and maintained at 37°C under 5% CO2. Intracellular Ca^2+ mobilization was measured as previously described ([42], [43]). In brief, 5 × 10^5 COS-7 cells were spread on a 60-mm dish 1 day before transfection. About 10 μg of GPCR expression vector were transfected into the cells using Lipofectamine 2000 (Thermo Fisher Scientific) according to the manufacturer’s instructions. After the 24-h incubation, 6 × 10^4 cells per well were respread on a 96-well plate for the following assay. Each MRGPRX mutant fused with human Gαq16 for expression at the cell membrane was confirmed by immunostaining using the anti-Gαq16 antibody (Ori Gene TA318890) (Fig. S5). SP (PEPTIDE […]) and BAM8–22 (Tocris Bioscience) were used for the assays. Real-time Ca^2+ mobilization of Gαq16-fused MRGPRX1/2 was measured using a Ca5 kit (Molecular Devices) and FlexStation III according to the manufacturer’s instructions. The calcium accumulation data were analyzed using Prism, version 6 (GraphPad) and found to fit a sigmoidal concentration–response curve, and the means ± SEMs of EC50 were calculated.

(I3.24F, W4.61G)-MRGPRX1 = target: T2, (I3.24F, W4.61G)-MRGPRX1 (Homo sapiens, UniProt Q96LB2, I94F/W158G); experiment: Intracellular Ca2+ mobilization in COS-7 cells, Gαq16-fused receptor, (I3.24F, W4.61G)-MRGPRX1
T2 construct: host or cells: COS-7
Description: as §1, §2

[2] = target: (I3.24F, W4.61G)-Mm-MRGPRX1 (Macaca mulatta, UniProt A0A5F7ZSN8, I94F/W158G); experiment: Intracellular Ca2+ mobilization in COS-7 cells, Gαq16-fused receptor, (I3.24F, W4.61G)-Mm-MRGPRX1; conditions: SP
Description: as §1
(§3) COS-7 cells were purchased from American Type Culture Collection and cultured in Dulbecco's modified Eagle's medium (Nacalai Tesque) supplemented with 10% fetalbovine serum (Sigma) and maintained at 37°C under 5% CO2. Intracellular Ca^2+ mobilization was measured as previously described ([42], [43]). In brief, 5 × 10^5 COS-7 cells were spread on a 60-mm dish 1 day before transfection. […] Real-time Ca^2+ mobilization of Gαq16-fused MRGPRX1/2 was measured using a Ca5 kit (Molecular Devices) and FlexStation III according to the manufacturer’s instructions. The calcium accumulation data were analyzed using Prism, version 6 (GraphPad) and found to fit a sigmoidal concentration–response curve, and the means ± SEMs of EC50 were calculated.

(P1.35L)-MRGPRX2 = target: T3, (P1.35L)-MRGPRX2 (Homo sapiens, UniProt Q96LB1, P33L); experiment: Intracellular Ca2+ mobilization in COS-7 cells, Gαq16-fused receptor, (P1.35L)-MRGPRX2; conditions: COS-7, Ca2+ mobilization
T3 construct: host or cells: COS-7
T3 sequence (Q96LB1 1-330 P33L): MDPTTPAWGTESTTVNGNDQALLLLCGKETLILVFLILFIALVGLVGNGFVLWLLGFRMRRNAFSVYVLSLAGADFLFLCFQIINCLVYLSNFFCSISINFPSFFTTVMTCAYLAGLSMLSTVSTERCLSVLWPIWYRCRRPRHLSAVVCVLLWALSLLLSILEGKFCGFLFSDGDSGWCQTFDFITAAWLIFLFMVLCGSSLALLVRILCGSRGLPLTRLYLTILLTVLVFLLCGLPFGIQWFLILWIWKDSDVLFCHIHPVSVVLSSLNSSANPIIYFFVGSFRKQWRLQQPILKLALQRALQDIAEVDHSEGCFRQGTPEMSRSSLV
Description: COS-7 cells were purchased from American Type Culture Collection and cultured in Dulbecco's modified Eagle's medium (Nacalai Tesque) supplemented with 10% fetalbovine serum (Sigma) and maintained at 37°C under 5% CO2. Intracellular Ca^2+ mobilization was measured as previously described ([42], [43]). In brief, 5 × 10^5 COS-7 cells were spread on a 60-mm dish 1 day before transfection. About 10 μg of GPCR expression vector were transfected into the cells using Lipofectamine 2000 (Thermo Fisher Scientific) according to the manufacturer’s instructions. After the 24-h incubation, 6 × 10^4 cells per well were respread on a 96-well plate for the following assay. […] Real-time Ca^2+ mobilization of Gαq16-fused MRGPRX1/2 was measured using a Ca5 kit (Molecular Devices) and FlexStation III according to the manufacturer’s instructions. The calcium accumulation data were analyzed using Prism, version 6 (GraphPad) and found to fit a sigmoidal concentration–response curve, and the means ± SEMs of EC50 were calculated.

(F1.35L)-Mm-MRGPRX1 = (F1.35L)-Mm-MRGPRX1 (Macaca mulatta, UniProt A0A5F7ZSN8, F30L); experiment: Intracellular Ca2+ mobilization in COS-7 cells, Gαq16-fused receptor, (F1.35L)-Mm-MRGPRX1; conditions: BAM8–22; COS-7, Ca2+ mobilization; mean ± standard error of three replicate analyses; read-out: Maximal response
Description: as §1, §3

Mm-MRGPRX1 WT = target: T4, Mm-MRGPRX1 WT (Macaca mulatta, UniProt A0A5F7ZSN8); experiment: Intracellular Ca2+ mobilization in COS-7 cells, Gαq16-fused receptor, intact Mm-MRGPRX1; conditions: BAM8–22
T4 construct: host or cells: COS-7
Description: as §1, §3

(S1.43A)-MRGPRX1 = target: T5, (S1.43A)-MRGPRX1 (Homo sapiens, UniProt Q96LB2, S38A); experiment: Intracellular Ca2+ mobilization in COS-7 cells, Gαq16-fused receptor, (S1.43A)-MRGPRX1; conditions: BAM8–22
T5 construct: host or cells: COS-7
Description: as §1, §3

MRGPRX1 WT = target: T6, MRGPRX1 WT (Homo sapiens, UniProt Q96LB2); experiment: Intracellular Ca2+ mobilization in COS-7 cells, Gαq16-fused receptor, wildtype MRGPRX1; conditions: BAM8–22
T6 construct: host or cells: COS-7
Description: as §1, §3

(L1.35P)-MRGPRX1 = target: T7, (L1.35P)-MRGPRX1 (Homo sapiens, UniProt Q96LB2, L30P); experiment: Intracellular Ca2+ mobilization in COS-7 cells, Gαq16-fused receptor, (L1.35P)-MRGPRX1
T7 construct: host or cells: COS-7
Description: as §1, §3

[3] = COS-7, SP, compared with intact MRGPRX2, mean ± standard error of three replicate analyses, read-out: Maximal response (Emax)
[4] = SP, COS-7, Gαq16-fused, Ca2+ mobilization, three replicate analyses
[5] = COS-7, Ca2+ mobilization, mean ± standard error of three replicate analyses, read-out: Maximal response
[6] = COS-7, Gαq16-fused, Ca2+ mobilization, three replicate analyses

T2 sequence (Q96LB2 whole entry I94F/W158G, the tested form may be a part): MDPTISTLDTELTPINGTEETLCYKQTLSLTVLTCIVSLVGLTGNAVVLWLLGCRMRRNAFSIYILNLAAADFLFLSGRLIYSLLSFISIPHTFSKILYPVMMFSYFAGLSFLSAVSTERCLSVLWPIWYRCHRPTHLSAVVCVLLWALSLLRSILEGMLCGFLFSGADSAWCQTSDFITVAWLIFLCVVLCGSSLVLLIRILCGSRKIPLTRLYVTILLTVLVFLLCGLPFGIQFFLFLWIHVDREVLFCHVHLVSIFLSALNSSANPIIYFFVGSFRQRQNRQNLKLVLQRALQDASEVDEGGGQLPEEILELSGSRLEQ
Chain of (I3.24F, W4.61G)-Mm-MRGPRX1 (A0A5F7ZSN8 1-322 I94F/W158G): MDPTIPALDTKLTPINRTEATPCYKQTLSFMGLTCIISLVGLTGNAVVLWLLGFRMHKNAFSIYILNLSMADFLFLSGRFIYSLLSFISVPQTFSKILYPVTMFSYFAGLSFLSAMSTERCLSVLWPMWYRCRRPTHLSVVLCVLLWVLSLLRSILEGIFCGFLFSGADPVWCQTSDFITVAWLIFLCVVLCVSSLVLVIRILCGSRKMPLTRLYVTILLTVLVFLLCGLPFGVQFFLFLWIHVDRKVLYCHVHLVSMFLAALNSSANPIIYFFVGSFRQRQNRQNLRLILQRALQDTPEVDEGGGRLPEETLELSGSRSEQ
T1 sequence (Q96LB2 whole entry L30P/I94F/W158G, the tested form may be a part): as the sequence (Q96LB2 whole entry I94F/W158G, the tested form may be a part) above, with L30P counted along it
T6 sequence (Q96LB2 whole entry, the tested form may be a part): as the sequence (Q96LB2 whole entry I94F/W158G, the tested form may be a part) above, with F94I, G158W counted along it
T7 sequence (Q96LB2 whole entry L30P, the tested form may be a part): as the sequence (Q96LB2 whole entry I94F/W158G, the tested form may be a part) above, with L30P, F94I, G158W counted along it
T4 sequence (A0A5F7ZSN8 1-322): as the sequence (A0A5F7ZSN8 1-322 I94F/W158G) above, with F94I, G158W counted along it
T5 sequence (Q96LB2 whole entry S38A, the tested form may be a part): as the sequence (Q96LB2 whole entry I94F/W158G, the tested form may be a part) above, with S38A, F94I, G158W counted along it
Chain of (F1.35L)-Mm-MRGPRX1 (A0A5F7ZSN8 1-322 F30L): as the sequence (A0A5F7ZSN8 1-322 I94F/W158G) above, with F30L, F94I, G158W counted along it

Row | Molecule | EC50 compared with MRGPRX2-SP (in words) ([1]; COS-7, Ca2+ mobilization) | Emax [1, 3] [%] | EC50 [1, 4] [nM] | EC50 compared with MRGPRX2-SP (in words) ((I3.24F, W4.61G)-MRGPRX1; COS-7, Ca2+ mobilization) | Emax ((I3.24F, W4.61G)-MRGPRX1; [3]) [%] | EC50 ((I3.24F, W4.61G)-MRGPRX1; [4]) [nM] | Emax [2, 5] [%] | EC50 [2, 6] | Response to 3 μM BAM8–22 ((P1.35L)-MRGPRX2) [%] | Emax ((F1.35L)-Mm-MRGPRX1) [%] | Emax (Mm-MRGPRX1 WT; [5]) [%] | EC50 (Mm-MRGPRX1 WT; [6]) [nM] | Emax ((S1.43A)-MRGPRX1; [5]) [%] | EC50 ((S1.43A)-MRGPRX1; [6]) [nM] | Emax (MRGPRX1 WT; [5]) [%] | EC50 (MRGPRX1 WT; [6]) [nM] | Response to 3 μM BAM8–22, of that of wildtype MRGPRX1 ((L1.35P)-MRGPRX1; 3 μM BAM8–22, COS-7, Ca2+ mobilization) [%] | EC50 ((L1.35P)-MRGPRX1; BAM8–22, COS-7, Gαq16-fused, Ca2+ mobilization, three replicate analyses) [nM]
1 | CSCC[C@H](NC(=O)[C@H](CC(C)C)NC(=O)CNC(=O)[C@H](Cc1ccccc1)NC(=O)[C@H](Cc1ccccc1)NC(=O)[C@H](CCC(N)=O)NC(=O)[C@H](CCC(N)=O)NC(=O)[C@@H]1CCCN1C(=O)[C@H](CCCCN)NC(=O)[C@@H]1CCCN1C(=O)[C@@H](N)CCCNC(=N)N)C(N)=O [SP, substance P] | comparable to that of MRGPRX2-SP | 39.5 ± 3 | 1660 | comparable to that of MRGPRX2-SP | 42.1 ± 2.28 | 2240 | 100 ± 5.28 | 200 nM and 690 nM | – | – | – | – | – | – | – | – | – | –
2 | VGRPEWWMDYQKRYG [BAM8–22, bovine adrenal medulla peptide 8–22] | – | – | – | – | – | – | – | – | 30.23 ± 1.08 | 100 ± 1.94 | 66.5 ± 2.91 | 2570 | 102 ± 9.64 | 200 | 100 ± 7.78 | 170 | 48.48 ± 1.08 | 3160
